The data set in a line: Color intensity E1% of cavernamine-L powder and its formulation. It is filed as physicochemical. On the procedure:
The dilution mixture was adjusted to pH 5 with Sodium Hydroxide 2 M. The cavernamine-L powder was added to the dilution mixture in a concentration of 0.5 g/L and mixed for 5 minutes. The colored solution was then frozen prior to lyophilzation. Diluted red powder was recovered and the color intensity of the formulated cavernamine-L was detected to be E1% (at 492 nm) of 2.2, compared to E1% (at 492 nm) of 220 of original pure cavernamine-L powder.

The values that follow come from patent US20220002551A1, “A NOVEL CLASS OF PIGMENTS IN ASPERGILLUS” (DANMARKS TEKNISKE UNIVERSITET, priority 2019, published 2022).

For the compound `C/C=C\C1=CC2=CC3=C(C(=O)C(C)CC)C(=O)OC3(C)C(=O)C2=CN1C(CC(C)C)C(=O)O` (stereo not drawn) [cis-cavernamine-L], the “color intensity E1% (at 492 nm)” value was determined as 220.
